System: U87MG cells
Test: Cytotoxicity assay (cell viability, CellTiter 96 Aqueous MTS)
Type: cell-based
Conditions: Homo sapiens, U-87 MG, 72 h, 72 hours incubation, starting concentration 50 uM, 9 point half log dilution, average where tested repeatedly
Experimental: Example 3: Cytotoxicity Assay
U87MG cells were plated at a density of 7×10^3 cells/well and allowed to seed overnight. Cells were then treated with compounds from Table 1 or CMPD-1 (4-(2′-fluoro-[1,1′-biphenyl]-4-yl)-N-(4-hydroxyphenyl)butanamide as a positive control) were added to cells at a starting concentration of 50 uM, with a 9 point half log dilution, and incubated for 72 hours prior to viability determination. IC50 values were calculated from cell viability as measured using the CellTiter 96® Aqueous MTS reagent from Promega©, and the results are shown in Table 2.

O=C(CCCc1ccc(-c2ccc(C(F)(F)F)nc2)cc1)Nc1cccnc1 [Compound 155, N-(pyridin-3-yl)-4-(4-(6-(trifluoromethyl)pyridin-3-yl)phenyl)butanamide]
IC50: 0.501 to 1 µM

Cc1cc(-c2ccc(CCCC(=O)Nc3cccnc3)cc2)ccn1 [Compound 156, 4-(4-(2-methylpyridin-4-yl)phenyl)-N-(pyridin-3-yl)butanamide]
IC50: > 5 µM

O=C(CCCc1ccc(-c2ccc(F)cc2F)cc1)Nc1cccnc1 [Compound 157, 4-(2′,4′-difluoro-[1,1′-biphenyl]-4-yl)-N-(pyridin-3-yl)butanamide]
IC50: 1 to 5 µM

O=C(CCCc1ccc(-c2cccnc2)cc1)Nc1cccnc1 [Compound 158, N-(pyridin-3-yl)-4-(4-(pyridin-3-yl)phenyl)butanamide]
IC50: > 5 µM

O=C(CCCc1ccc(-c2c(F)cccc2F)cc1)Nc1cccnc1 [Compound 159, 4-(2′,6′-difluoro-[1,1′-biphenyl]-4-yl)-N-(pyridin-3-yl)butanamide]
IC50: 1 to 5 µM

O=C(CCCc1ccc(-c2ccccc2Cl)cc1)Nc1cccnc1 [Compound 160, 4-(2′-chloro-[1,1′-biphenyl]-4-yl)-N-(pyridin-3-yl)butanamide]
IC50: 1 to 5 µM

O=C(CCCc1ccc(-c2ccc3nonc3c2)cc1)Nc1cccnc1 [Compound 161, 4-(4-(benzo[c][1,2,5]oxadiazol-5-yl)phenyl)-N-(pyridin-3-yl)butanamide]
IC50: > 5 µM

O=C(CCCc1ccc(-c2ccc3c(c2)OCCO3)cc1)Nc1cccnc1 [Compound 162, 4-(4-(2,3-dihydrobenzo[b][1,4]dioxin-6-yl)phenyl)-N-(pyridin-3-yl)butanamide]
IC50: 0.501 to 1 µM

O=C(CCCc1ccc(-c2ccc3ncccc3c2)cc1)Nc1cccnc1 [Compound 163, N-(pyridin-3-yl)-4-(4-(quinolin-6-yl)phenyl)butanamide]
IC50: < 0.5 µM

Cn1cc2cc(-c3ccc(CCCC(=O)Nc4cccnc4)cc3)ccc2n1 [Compound 164, 4-(4-(2-methyl-2H-indazol-5-yl)phenyl)-N-(pyridin-3-yl)butanamide]
IC50: 0.501 to 1 µM

Cn1cc2c(-c3ccc(CCCC(=O)Nc4cccnc4)cc3)cccc2n1 [Compound 165, 4-(4-(2-methyl-2H-indazol-4-yl)phenyl)-N-(pyridin-3-yl)butanamide]
IC50: 1 to 5 µM

Cn1ncc2ccc(-c3ccc(CCCC(=O)Nc4cccnc4)cc3)cc21 [Compound 166, 4-(4-(1-methyl-1H-indazol-6-yl)phenyl)-N-(pyridin-3-yl)butanamide]
IC50: 1 to 5 µM

COc1ccc(-c2ccc(CCCC(=O)Nc3cccnc3)cc2)cn1 [Compound 167, 4-(4-(6-methoxypyridin-3-yl)phenyl)-N-(pyridin-3-yl)butanamide]
IC50: > 5 µM

COc1ccc(-c2ccc(CCCC(=O)Nc3cccnc3)cc2)cc1OC [Compound 168, 4-(3′,4′-dimethoxy-[1,1′-biphenyl]-4-yl)-N-(pyridin-3-yl)butanamide]
IC50: 1 to 5 µM

Cn1ccc2cc(-c3ccc(CCCC(=O)Nc4cccnc4)cc3)ccc21 [Compound 169, 4-(4-(1-methyl-1H-indol-5-yl)phenyl)-N-(pyridin-3-yl)butanamide]
IC50: 0.501 to 1 µM

O=C(CCCc1ccc(-c2ccc3ocnc3c2)cc1)Nc1cccnc1 [Compound 173, 4-(4-(benzo[d]oxazol-5-yl)phenyl)-N-(pyridin-3-yl)butanamide]
IC50: 0.501 to 1 µM

COc1ccc(F)c(-c2ccc(CCCC(=O)Nc3cccnc3)cc2)c1 [Compound 175, 4-(2′-fluoro-5′-methoxy-[1,1′-biphenyl]-4-yl)-N-(pyridin-3-yl)butanamide]
IC50: 0.501 to 1 µM

O=C(CCCc1ccc(-c2cn[nH]c2)cc1)Nc1cccnc1 [Compound 176, 4-(4-(1H-pyrazol-4-yl)phenyl)-N-(pyridin-3-yl)butanamide]
IC50: > 5 µM

O=C(CCCc1ccc(-c2ccc3c(c2)NC(=O)C3)cc1)Nc1cccnc1 [Compound 177, 4-(4-(2-oxoindolin-6-yl)phenyl)-N-(pyridin-3-yl)butanamide]
IC50: 0.501 to 1 µM

COc1ncccc1-c1ccc(CCCC(=O)Nc2cccnc2)cc1 [Compound 178, 4-(4-(2-methoxypyridin-3-yl)phenyl)-N-(pyridin-3-yl)butanamide]
IC50: > 5 µM

O=C(CCCc1ccc(-c2cc(Cl)ccc2F)cc1)Nc1cccnc1 [Compound 179, 4-(5′-chloro-2′-fluoro-[1,1′-biphenyl]-4-yl)-N-(pyridin-3-yl)butanamide]
IC50: > 5 µM

Cc1c(-c2ccc(CCCC(=O)Nc3cccnc3)cc2)ccc2[nH]ncc12 [Compound 180, 4-(4-(4-methyl-1H-indazol-5-yl)phenyl)-N-(pyridin-3-yl)butanamide]
IC50: < 0.5 µM

O=C(CCCc1ccc(-c2cnc3[nH]ccc3c2)cc1)Nc1cccnc1 [Compound 181, 4-(4-(1H-pyrrolo[2,3-b]pyridin-5-yl)phenyl)-N-(pyridin-3-yl)butanamide]
IC50: < 0.5 µM

O=C(CCCc1ccc(-c2cnc3ccccc3c2)cc1)Nc1cccnc1 [Compound 183, N-(pyridin-3-yl)-4-(4-(quinolin-3-yl)phenyl)butanamide]
IC50: 1 to 5 µM

COc1cccc(-c2ccc(CCCC(=O)Nc3cccnc3)cc2)c1F [Compound 184, 4-(2′-fluoro-3′-methoxy-[1,1′-biphenyl]-4-yl)-N-(pyridin-3-yl)butanamide]
IC50: < 0.5 µM

O=C(CCCc1cccc(-n2cccn2)c1)Nc1cccnc1 [Compound 185, 4-(3-(1H-pyrazol-1-yl)phenyl)-N-(pyridin-3-yl)butanamide]
IC50: > 5 µM

O=C(CCCc1ccc(Cc2ccccc2)cc1)Nc1cccnc1 [Compound 186, 4-(4-benzylphenyl)-N-(pyridin-3-yl)butanamide]
IC50: > 5 µM

O=C(CCCc1ccc(-c2ccc(C(F)(F)F)cc2F)cc1)Nc1cccnc1 [Compound 189, 4-(2′-fluoro-4′-(trifluoromethyl)-[1,1′-biphenyl]-4-yl)-N-(pyridin-3-yl)butanamide]
IC50: 1 to 5 µM

O=C(CCCc1ccc(-c2cc3cccnc3cc2F)cc1)Nc1cccnc1 [Compound 190, 4-(4-(7-fluoroquinolin-6-yl)phenyl)-N-(pyridin-3-yl)butanamide]
IC50: < 0.5 µM

Cc1nn(C)c2ccc(-c3ccc(CCCC(=O)Nc4cccnc4)cc3)cc12 [Compound 191, 4-(4-(1,3-dimethyl-1H-indazol-5-yl)phenyl)-N-(pyridin-3-yl)butanamide]
IC50: 1 to 5 µM

O=C(CCCc1ccc(-c2ccc3nccnc3c2)cc1)Nc1cccnc1 [Compound 192, N-(pyridin-3-yl)-4-(4-(quinoxalin-6-yl)phenyl)butanamide]
IC50: 1 to 5 µM

O=C(CCCc1ccc(-c2cnn(Cc3ccccc3)c2)cc1)Nc1cccnc1 [Compound 193, 4-(4-(1-benzyl-1H-pyrazol-4-yl)phenyl)-N-(pyridin-3-yl)butanamide]
IC50: > 5 µM

O=C(CCCc1ccc(-c2ccc3[nH]cnc3c2)cc1)Nc1cccnc1 [Compound 195, 4-(4-(1H-benzo[d]imidazol-5-yl)phenyl)-N-(pyridin-3-yl)butanamide]
IC50: 0.501 to 1 µM

O=C(CCCc1ccc(-c2ccc3c(c2)CCC(=O)N3)cc1)Nc1cccnc1 [Compound 196, 4-(4-(2-oxo-1,2,3,4-tetrahydroquinolin-6-yl)phenyl)-N-(pyridin-3-yl)butanamide]
IC50: < 0.5 µM

O=C(CCCc1ccc(-c2ccc3nccn3c2)cc1)Nc1cccnc1 [Compound 197, 4-(4-(imidazo[1,2-a]pyridin-6-yl)phenyl)-N-(pyridin-3-yl)butanamide]
IC50: > 5 µM

O=C(CCCc1ccc(-c2ccc(-n3cccn3)cc2)cc1)Nc1cccnc1 [Compound 198, 4-(4′-(1H-pyrazol-1-yl)-[1,1′-biphenyl]-4-yl)-N-(pyridin-3-yl)butanamide]
IC50: 0.501 to 1 µM

Cc1ccc2cc(-c3ccc(CCCC(=O)Nc4cccnc4)cc3)ccc2n1 [Compound 199, 4-(4-(2-methylquinolin-6-yl)phenyl)-N-(pyridin-3-yl)butanamide]
IC50: 0.501 to 1 µM

O=C(CCCc1ccc(-c2cc(C(=O)N3CCOCC3)ccc2F)cc1)Nc1cccnc1 [Compound 200, 4-(2′-fluoro-5′-(morpholine-4-carbonyl)-[1,1′-biphenyl]-4-yl)-N-(pyridin-3-yl)butanamide]
IC50: > 5 µM

O=C(CCCc1ccc(-c2ccncc2)cc1)Nc1cccnc1 [Compound 202, N-(pyridin-3-yl)-4-(4-(pyridin-4-yl)phenyl)butanamide]
IC50: > 5 µM

Cc1nn(C)cc1-c1ccc(CCCC(=O)Nc2cccnc2)cc1 [Compound 203, 4-(4-(1,3-dimethyl-1H-pyrazol-4-yl)phenyl)-N-(pyridin-3-yl)butanamide]
IC50: > 5 µM

O=C(CCCc1ccc(-c2nnco2)cc1)Nc1cccnc1 [Compound 204, 4-(4-(1,3,4-oxadiazol-2-yl)phenyl)-N-(pyridin-3-yl)butanamide]
IC50: 1 to 5 µM

O=C(CCCc1ccc(-c2cnc(N3CCOCC3)nc2)cc1)Nc1cccnc1 [Compound 205, 4-(4-(2-morpholinopyrimidin-5-yl)phenyl)-N-(pyridin-3-yl)butanamide]
IC50: > 5 µM

O=C(CCCc1ccc(-c2ccc3[nH]ncc3c2)cc1)Nc1cccnc1 [Compound 206, 4-(4-(1H-indazol-5-yl)phenyl)-N-(pyridin-3-yl)butanamide]
IC50: < 0.5 µM

O=C(CCCc1ccc(-c2ccc3[nH]c(=O)oc3c2)cc1)Nc1cccnc1 [Compound 208, 4-(4-(2-oxo-2,3-dihydrobenzo[d]floxazol-6-yl)phenyl)-N-(pyridin-3-yl)butanamide]
IC50: 1 to 5 µM

O=C(CCCc1ccc(-c2cc3cn[nH]c3cc2F)cc1)Nc1cccnc1 [Compound 209, 4-(4-(6-fluoro-1H-indazol-5-yl)phenyl)-N-(pyridin-3-yl)butanamide]
IC50: < 0.5 µM

O=C(CCCc1ccc(-c2cnc3[nH]ncc3c2)cc1)Nc1cccnc1 [Compound 210, 4-(4-(1H-pyrazolo[3,4-b]pyridin-5-yl)phenyl)-N-(pyridin-3-yl)butanamide]
IC50: < 0.5 µM

Source: patent US12247010B2, “Tubulin inhibitors” (LIN BIOSCIENCE PTY LTD., priority 2017, dated 2025)
